Measurements from US20240140953A1, “INHIBITORS OF MENIN-MLL INTERACTION” (BIOMEA FUSION, INC., priority 2018, published 2024).
Read-outs that look alike come from different tables or passages of the source.

Legend:
HL-60 [1] = assay: LTP assay, CellTiterGlo, T4-T14 (Example 103), HL-60; type: cell-based; conditions: for inhibition of cell viability (in words): HL-60, LTP assay
Experimental: (§1) The day of the experiment (T0) all the cell line suspensions were counted by Cell Viability Analyser, Vi-CELL and properly diluted with fresh medium to obtain the cell density reported in the Test System paragraph.
(§2) Cells were tested after 4 passages after thawing.
(§3) 200 μL/well and 150 μL/well of cell suspension were added into the 0.4 μL/well and 0.3 μL/well compound plates, respectively. • Cell plate containing 200 μL/well suspension was incubated at 37° C. in a humidified incubator with 5% CO2. • From each well of the 150 μL/well cell assay plate, 100 μL were harvested and transferred into a 96-well Optiplate (Perkin Elmer, Cat. n. 6005290) and cell viability was measured as described in 4.3 paragraphs (T0).
(§4) After four days in culture (T4) 150 μL/well of fresh medium were added into a new 0.3 μL/well copy compound plate. • From each well of the 200 μL/well cell assay plate: • 100 μL were sampled for the cell viability measurement as described in 4.3 paragraphs (T4). • 50 μL were harvested and added to the 150 μL/well compound plate prepared as described in the first point to dilute 1:4 the cell suspension. • The cell assay plate diluted and containing 200 μL/well suspension were incubated at 37° C. in a humidified incubator with 5% Co2.
(§5) At T7-T11-T14 it was proceeded as described in T4, with the exception that no further cell dilution was carried out at T14.
(§6) Plates containing the samples to be tested were equilibrated at room temperature for approximately 30 min and then 30 μL/well of the Promega CellTiterGlo® reagent were added.
(§7) Contents will be mixed for 5 min on an orbital shaker to induce cell lysis and then incubated at room temperature for an additional 10 min to stabilize the luminescent signal.
(§8) Luminescence was read by using VictorV (Perkin Elmer) multilabel plate reader using the standard protocol for luminescence in 96 well plate.
(§9) Data were expressed as % of inhibition compared to the 0.2% DMSO negative control, and was calculated as follows: […]
(§10) CRCs were analysed by GraphPad and IC50 values were calculated by non-linear regression using 4 parameter-logistic equation. IC50 (μM) values were reported in the final data table.
(§11) The curve fittings were performed leaving free all the parameters. Any constrain were reported in the results table.

MOLM-13 (MLL-AF9) [2] = assay: LTP assay, CellTiterGlo, T4-T14 (Example 103), MOLM-13; type: cell-based, human; conditions: for IC50: Homo sapiens; for inhibition of cell viability (in words): MOLM-13, LTP assay
Experimental: as §1, §2, §3, §4, §5, §6, §7, §8, §9, §10, §11

MV4-11 (MLL-AF4) [3] = assay: LTP assay, CellTiterGlo, T4-T14 (Example 103), MV4-11; type: cell-based, human; conditions: for IC50: Homo sapiens; for inhibition of cell viability (in words): MV4-11, LTP assay
Experimental: as §1, §2, §3, §4, §5, §6, §7, §8, §9, §10, §11

RS4-11 (MLL-AF4) = assay: LTP assay, CellTiterGlo, T4-T14 (Example 103), RS4-11; type: cell-based; conditions: for IC50: Homo sapiens; for inhibition of cell viability (in words): RS4;11, LTP assay
Experimental: as §1, §2, §3, §4, §5, §6, §7, §8, §9, §10, §11

HL-60 [4] = assay: Proliferation study, CellTiterGlo, 4 days (Example 102), HL-60; type: cell-based; conditions: HL-60, 4 days treatment
Source text: (§12) The objective of the study was to evaluate the ability of representative compounds of the present invention, inhibitors of Menin/MLL interaction to inhibit cell proliferation. The proliferation inhibitory effect was investigated in two human MLL-leukemia cells selected on the bases of MLL fusion protein and listed in Table 102. HL-60 cell line was used as negative control.
(§13) ATP is present in all metabolically active cells and is considered as a marker for cell viability and proliferation. The metabolic cell activity was determined using the CellTiter-Glo kit from Promega, an ATP monitoring system based on the production of luminescence by the reaction of ATP with added UltraGlo® recombinant luciferase (Kawano et al., 2016), according to the supplier's experimental recommendations.
(§14) The described assay evaluates the ability of 4 representative compounds to inhibit the cell proliferation in the human MLL-leukemia cells plus a negative control cell line.
(§15) The assay provides potency values (IC50) for each test compound at a single time point Day 4 (T4).
(§16) Seven concentrations of the compounds (2.00E-05-6.67E-06-2.22E-06-7.41E-07-2.47E-07-8.23E-08-2.74E-08M), were assessed in duplicate in an individual test occasion in all the cell lines. MI-503 (Borkin et al., 2015) was used as reference compound and was tested at the same concentrations as the NCEs. 100% of proliferation is represented by the untreated cells (0.2% DMSO). The cell growth was monitored up to 4 days in culture.
(§17) MV4-11, MOLM-13 and HL-60 cells (see Table 2) were maintained in RPMI-1640 medium (Invitrogen, Cat. n. 618700, Batch n. 1965930) supplemented with 10% of Heat Inactivated FBS (Invitrogen, Cat n. 10500, Batch n. 08Q8078K) and 1% Pen-Strep (Invitrogen, Cat. N. 15140, Batch n. 1910859) and cultured at 37° C. in a humidified incubator with 5% CO2. All the cell lines grow in suspension and the cell density was maintained in a range of 2×10^5-1×10^6 viable cells/ml. Cells were pelleted at 130 g×5 min and conditioned medium was used to dilute the cell suspension.
(§18) Test items were dissolved in glass vials at 10 mM in DMSO with purity ≥99.9% (Sigma, D8418, batch n. SHBH4245V) and stored at −20° C. in 1.5 mL Eppendorf tubes.
(§19) Serial dilutions 1 to 3 in DMSO 100% were prepared starting from a 10 mM stock solutions to generate 7 points concentration response curve (CRC).
(§20) For each plate to test, one 0.4 μL copy plate and four 0.3 μL copy plates were then stamped into 96-well plates not treated for cell adhesion (Sarstedt—cat.no. 82.1581.001) by acoustic liquid Handling, Echo, at a concentration which was 500 fold the final assay concentration. Stamped plates were stored at −20° C. The final concentrations for the reference compound, MI-503, and the test items were: 2.00E-05, 6.67E-06, 2.22E-06, 7.41E-07, 2.47E-07, 8.23E-08 and 2.74E-08 M.
(§21) Cells were plated in 96-well flat bottom microtiter plates at cell density of 15,000 cells/ml for HL-60, 1000 cells/ml for MOLM-13 and 10,000 cell/ml for MV4-11. Cells were treated with 0.2% DMSO (Sigma, D8418, batch n. SHBH4245V) or serial dilutions of compounds (0.027 μM-20 μM) in DMSO (0.2% final concentration). Cells were incubated in a 5% CO2 incubator at 37° C. for 4 days. A CellTiterGlo viability assay (Promega) was employed. Luminescence was read by using VictorV (Perkin Elmer) multilabel plate reader using the standard protocol for luminescence in 96 well plate. The experiment was performed in duplicate.
as §9
(§22) CRCs were analysed by GraphPad and IC50 values were calculated by non-linear regression using 4 parameter-logistic equation. IC50 (μM) values were reported in the final data table. The curve fittings were performed leaving free all the parameters. Any constrain were reported in the results table.

MV4-11 (MLL-AF4) [5] = assay: Proliferation study, CellTiterGlo, 4 days (Example 102), MV4-11; type: cell-based, human; conditions: MV4-11, 4 days treatment
Source text: as §12, §13, §14, §15, §16, §17, §18, §19, §20, §21, §9, §22

MOLM-13 (MLL-AF9) [6] = assay: Proliferation study, CellTiterGlo, 4 days (Example 102), MOLM-13; type: cell-based, human; conditions: MOLM-13, 4 days treatment
Source text: as §12, §13, §14, §15, §16, §17, §18, §19, §20, §21, §9, §22

[7] = Homo sapiens, HL-60, 96 h, HL-60, T4 (Day 4), read-out: IC50 T4 (Day 4)
[8] = Homo sapiens, HL-60, HL-60, T7, read-out: IC50 T7
[9] = Homo sapiens, HL-60, HL-60, T11, read-out: IC50 T11
[10] = Homo sapiens, HL-60, HL-60, T14, read-out: IC50 T14
[11] = MOLM-13, 96 h, MOLM-13 (MLL-AF9), T4 (Day 4), read-out: IC50 T4 (Day 4)
[12] = MOLM-13, MOLM-13 (MLL-AF9), T7, read-out: IC50 T7
[13] = MOLM-13, MOLM-13 (MLL-AF9), T11, read-out: IC50 T11
[14] = MOLM-13, MOLM-13 (MLL-AF9), T14, read-out: IC50 T14
[15] = MV4-11, 96 h, MV4-11 (MLL-AF4), T4 (Day 4), read-out: IC50 T4 (Day 4)
[16] = MV4-11, MV4-11 (MLL-AF4), T7, read-out: IC50 T7
[17] = MV4-11, MV4-11 (MLL-AF4), T11, read-out: IC50 T11
[18] = MV4-11, MV4-11 (MLL-AF4), T14, read-out: IC50 T14
[19] = RS4-11, 96 h, RS4-11 (MLL-AF4), T4 (Day 4), read-out: IC50 T4 (Day 4)
[20] = RS4-11, RS4-11 (MLL-AF4), T7, read-out: IC50 T7
[21] = RS4-11, RS4-11 (MLL-AF4), T11, read-out: IC50 T11

SMILES | inhibition of cell viability (in words) (HL-60 [1]) | IC50 (HL-60 [1]; [7]) | IC50 (HL-60 [1]; [8]) | IC50 (HL-60 [1]; [9]) | IC50 (HL-60 [1]; [10]) | IC50 (MOLM-13 (MLL-AF9) [2]; [11]) | IC50 (MOLM-13 (MLL-AF9) [2]; [12]) | IC50 (MOLM-13 (MLL-AF9) [2]; [13]) | IC50 (MOLM-13 (MLL-AF9) [2]; [14]) | inhibition of cell viability (in words) (MOLM-13 (MLL-AF9) [2]) | IC50 (MV4-11 (MLL-AF4) [3]; [15]) | IC50 (MV4-11 (MLL-AF4) [3]; [16]) | IC50 (MV4-11 (MLL-AF4) [3]; [17]) | IC50 (MV4-11 (MLL-AF4) [3]; [18]) | inhibition of cell viability (in words) (MV4-11 (MLL-AF4) [3]) | IC50 (RS4-11 (MLL-AF4); [19]) | IC50 (RS4-11 (MLL-AF4); [20]) | IC50 (RS4-11 (MLL-AF4); [21]) | inhibition of cell viability (in words) (RS4-11 (MLL-AF4)) | further results
O=C(Nc1ccc(-c2nc3c(N4CCOCC4)nccc3[nH]2)cc1)Nc1cc(-c2cccnc2)n[nH]1 [Compound 19, 1-{4-[4-(morpholin-4-yl)-1H-imidazo[4,5-c]pyridin-2-yl]phenyl}-3-[3-(pyridin-3-yl)-1Hpyrazol-5-yl]urea] | fully inhibits the cell viability | 1550 nM | 870 nM | 650 nM | 590 nM | 830 nM | 740 nM | 780 nM | 1320 nM | fully inhibits the cell viability | 1290 nM | 1410 nM | 50 nM | 80 nM | fully inhibits the cell viability | 1620 nM | 1550 nM | > 5000 nM | fully inhibits the cell viability | IC50 (HL-60 [1]; HL-60, T7, read-out: IC50 T7): 871 nM
Cc1cn(-c2nccc3[nH]c(-c4ccc(NC(=O)Cc5cc(-c6cccnc6)n[nH]5)cc4)nc23)cn1 [Compound 31, N-[4-[4-(4-methylimidazol-1-yl)-1H-imidazo[4,5-c]pyridin-2-yl]phenyl]-2-(3-pyridin-3-yl-1H-pyrazol-5-yl)acetamide] |  | > 5000 nM | > 5000 nM | > 5000 nM | > 5000 nM | > 5000 nM | > 5000 nM | > 5000 nM | > 5000 nM |  | > 5000 nM | > 5000 nM | 2630 nM | 2190 nM |  | > 5000 nM | 1350 nM | > 5000 nM |  | 
Cc1ccc(-c2cc(CC(=O)Nc3ccc(-c4nc5c(N6CCOCC6)nccc5[nH]4)cc3)[nH]n2)cn1 [Compound 32] |  | > 5000 nM | > 5000 nM | > 5000 nM | > 5000 nM | > 5000 nM | > 5000 nM | > 5000 nM | > 5000 nM |  | > 5000 nM | 4900 nM | 3090 nM | 2690 nM |  | > 5000 nM | 2750 nM | > 5000 nM |  | 
Cc1nccc2[nH]c(-c3ccc(NC(=O)Cc4cc(-c5cccnc5)n[nH]4)cc3)nc12 [Compound 33] |  | > 5000 nM | > 5000 nM | > 5000 nM | > 5000 nM | > 5000 nM | > 5000 nM | > 5000 nM | > 5000 nM |  | > 5000 nM | > 5000 nM | 3310 nM | 2340 nM |  | > 5000 nM | > 5000 nM | > 5000 nM |  | 
Cc1c(CN2CCC(Nc3ncnc4sc(CC(F)(F)F)cc34)CC2)ccc2c1cc(C#N)n2Cc1cn[nH]c1 [MI-503, reference compound] | fully inhibited cell viability |  |  |  |  |  |  |  |  | fully inhibited cell viability |  |  |  |  | fully inhibited cell viability |  |  |  | fully inhibited cell viability | HL-60 pIC50 (HL-60 [4]; CellTiterGlo): 6.38; IC50 (HL-60 [4]; CellTiterGlo, read-out: HL-60 IC50): 420 nM; HL-60 % max (HL-60 [4]; maximal inhibition): 103%; MV4-11 (MLL-AF4) pIC50 (MV4-11 (MLL-AF4) [5]; CellTiterGlo): 6.73; IC50 (MV4-11 (MLL-AF4) [5]; CellTiterGlo, read-out: MV4-11 (MLL-AF4) IC50): 190 nM; MV4-11 (MLL-AF4) % max (MV4-11 (MLL-AF4) [5]; maximal inhibition): 100%; MOLM-13 (MLL-AF9) pIC50 (MOLM-13 (MLL-AF9) [6]; CellTiterGlo): 6.63; IC50 (MOLM-13 (MLL-AF9) [6]; CellTiterGlo, read-out: MOLM-13 (MLL-AF9) IC50): 230 nM; MOLM-13 (MLL-AF9) % max (MOLM-13 (MLL-AF9) [6]; maximal inhibition): 98%
